In brackets after ≈: the same amount, converted by molar mass.
details: buffer; pH 7.4; 200.0 µM

Structure (SMILES)	solubility kinetic [µg/mL]
CC(C)c1ccc(N(CC(=O)N2CCN(Cc3ccccc3)CC2)S(C)(=O)=O)cc1	40.5 (≈ 94.3 µM)
Cl.O=C(NC(=S)N1CCN(c2ccccc2)CC1)c1ccco1	> 52.8
C(#Cc1ccccc1)CN1CCOCC1.Cl	> 35.7
COC(=O)c1sccc1NC(=O)Nc1ccc(C)cc1	10.1 (≈ 34.8 µM)
COc1ccccc1C(C)NC(=O)c1ccc(S(=O)(=O)NCc2ccco2)cc1 (stereo not given)	12.6 (≈ 30.4 µM)
CCCCCCC(=O)c1c([O-])n(-c2ccc(OC)cc2)c(=O)[nH]c1=O.C[NH+](C)C	44.5
CN1CCN(S(=O)(=O)Cc2ccc(Cl)cc2)CC1	33.8 (≈ 117 µM)
CCC1CCC2(CC1)NC(=O)N(CC(=O)NCc1ccccc1Cl)C2=O (stereo not given)	19.9 (≈ 52.7 µM)
COc1ccc2[nH]c(C(=O)N3CCC(Cc4ccccc4)CC3)cc2c1	< 0.4
CC1CCc2sc(C(=O)NCCCn3ccnc3)cc2C1 (stereo not given)	35 (≈ 115 µM)
CCOC(=O)C1C(c2ccc(Cl)cc2)NC(=S)NC1(O)C(F)(F)F (stereo not given)	37.8 (≈ 98.7 µM)
Nc1nc(N)c2c(n1)CCCC2	17.6 (≈ 107 µM)
CN(C)CCNC(=O)c1sc2cccc(F)c2c1Cl	40.1 (≈ 133 µM)
Cc1ccccc1CSc1[nH]c(=O)ncc1C	> 36.9
COc1ccc2[nH]cc(CCNC(=O)C3CCCCC3)c2c1	42.7 (≈ 142 µM)
COC(=O)CN(c1cccc(C)c1)S(=O)(=O)c1ccccc1	41.7 (≈ 131 µM)
Cc1ccccc1C(=O)Nc1ccc2c(c1)OCCO2	> 40.4
CCN1CCN(CC(=O)c2ccc(C)cc2)CC1	32.4 (≈ 132 µM)
Cc1nn(-c2ccccc2)c2[nH]c(=O)cc(C(F)F)c12	> 41.3
Cc1ccc(C(=O)NCC(=O)NC2CC2)cc1	33.4 (≈ 144 µM)

Structure (SMILES)	solubility kinetic [µg/mL]
O=C(NCCc1ccccc1)c1ccccc1Cl	> 39
O=S(=O)(c1cccc(-c2n[nH]c(=S)n2-c2ccccc2Cl)c1)N1CCOCC1	> 65.5
CC(=O)c1cccc(NC(=O)CCNC(=O)c2cccc(C)c2)c1	20.5 (≈ 63.2 µM)
O=C(c1cc(N2CCOCC2)c(F)cc1[N+](=O)[O-])N1CCOCC1	48 (≈ 141 µM)
O=C(O)c1ccc2c(c1)C(=O)N(c1ccc([N+](=O)[O-])cn1)C2=O	> 47
CCc1cccc(C)c1NC(=O)COC(=O)CSCc1ccccc1	13.7 (≈ 38.3 µM)
COc1ccc(CNC(=O)C2(CC(=O)NC(C)(C)C)CCCC2)cc1	> 52
Cc1ccc(Nc2ccc(C(=O)O)cc2[N+](=O)[O-])cc1	> 40.8
O=c1cc(NCc2ccccc2)[nH]c(=O)[nH]1	> 32.6
Cc1cccc(OC(C)C(=O)OCC(=O)N2CCN(c3ccccc3)CC2)c1 (stereo not given)	43.4 (≈ 113 µM)
Cc1cccc(-c2nsc(SCC(=O)NCC3CCCO3)n2)c1 (stereo not given)	> 52.4
CC(C)(C)OC(=O)NC(CC(=O)OCc1ccccc1)C(=O)O (stereo not given)	> 48.5
CCC(=O)Nc1cccc(-c2nc3ncccc3o2)c1C	> 42.2
O=Cc1c(Nc2cccc(C(F)(F)F)c2)nc2ccccn2c1=O	1.7 (≈ 5.1 µM)
Cn1cc(C(=O)OCC(=O)N2CCCCC2)c2ccccc21	> 45.1
Cc1cnc(C(=O)Nc2ccc(OC(F)(F)F)cc2)cn1	2.6 (≈ 8.75 µM)
CCC(C)(NC(=O)c1ccc2c(c1)OCO2)C(=O)NC1CCCCC1 (stereo not given)	> 52
CSc1ccccc1C(=O)Nc1nc2ccccc2[nH]1	3.1 (≈ 10.9 µM)
CCN(C(=O)C12CC3CC(CC(C3)C1)C2)C1CCS(=O)(=O)C1 (stereo not given)	> 48.8
c1ccc(N2CCOCCOCCOCCOCC2)cc1	> 44.3

Structure (SMILES)	solubility kinetic [µg/mL]
Cc1ccc2oc(C(=O)Nc3nonc3C)c(C)c2c1	< 0.2
O=C1CSC(c2ccccc2)N1c1ccc([N+](=O)[O-])cc1 (stereo not given)	33.4 (≈ 111 µM)
O=C(/C=C/c1ccco1)c1cccnc1	23.8 (≈ 119 µM)
CO/N=C/C=C1/N(C)c2ccccc2C1(C)C	19.4 (≈ 84.2 µM)
Cc1cc(=O)oc(C)c1C(=O)Nc1ccccc1F	35.4 (≈ 136 µM)
CCCC(=O)N1CCN(c2nc3ccc(CC)cc3s2)CC1	13.5 (≈ 42.5 µM)
Cc1ccc(C)c(OCC(O)CNC2CCCC2)c1.Cl (stereo not given)	> 45
COc1ccccc1OCCCC(=O)Nc1nccs1	23.4 (≈ 80 µM)
COc1ccc(C(=O)Nc2c(C)cc(C)cc2C)cc1OC	> 44.9
CC(=O)N1CCN(c2ccc(NC(=O)c3ccccc3C)cc2)CC1	36.8 (≈ 109 µM)
CC(C)N1C(=O)CCC1C(=O)NCc1ccco1 (stereo not given)	29.2 (≈ 117 µM)
Cc1cccc(C(=O)N=c2sccn2C)c1[N+](=O)[O-]	17.3 (≈ 62.4 µM)
N#Cc1ccc(C(=O)NCC2CCCCC2)cc1	19.9 (≈ 82.1 µM)
C=CCn1c(=S)sc2c(=O)[nH]c(C)nc21	> 35.9
C=CCNC(=O)COc1ccc(S(=O)(=O)N2CCCC2)cc1	> 48.7
CC1(C)C(=O)Nc2ccccc2N1C(=O)COC(=O)c1cccnc1Cl	> 56.1
Cc1ccc(S(=O)(=O)N2CCC(C(=O)OCC(=O)NCc3cccc(Cl)c3)CC2)cc1C	11 (≈ 23 µM)
CC1CCCCN1C(=O)CSc1nc(C2CC2)nc2ccccc12 (stereo not given)	> 51.2
O=C(O)c1cc(S(=O)(=O)N2CC3CC3C2C(=O)O)c(Cl)cc1Cl (stereo not given)	52.3 (≈ 138 µM)
Cc1cc(C)c2cc(C(=O)Nc3ccccc3)[nH]c2c1	1.2 (≈ 4.54 µM)

— PubChem BioAssay AID1996
